2 molecules from PubChem BioAssay (NCI) can be followed below.

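Five concentrations, 48 hours, 96-well plates. Here, GI50 denotes the concentration required for 50% inhibition of growth. TGI denotes the concentration required for complete inhibition of growth.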

Test systems include HCT-116 colon; SNB-75 CNS; UACC-62 melanoma; SW-620 colon; U251 CNS; BT-549 breast; NCI-H226 lung; T-47D breast; OVCAR-8 ovarian; A549 NSCLC.
Common to all, as to assay: NCI-60 cell line screen, 48 h

Take `O=C(CN1CCN(c2ccccc2)CC1)N1CCN(c2nnc(-c3ccc(Cl)cc3)c(-c3ccc(Cl)cc3)n2)CC1`: the GI50 in the experiment on HCT-116 colon is 4.26 µM; in the experiment with SNB-75 CNS, 14 µM; in the experiment on UACC-62 melanoma, 15.9 µM; in the experiment on SW-620 colon it was 16.1 µM; in the experiment with U251 CNS it was 8.16 µM; in the experiment with BT-549 breast it was 4.34 µM. In addition, the GI50 in the experiment on NCI-H226 lung is above 100 µM; in the experiment on T-47D breast it was 3.51 µM; in the experiment with OVCAR-8 ovarian, 16.3 µM; with A549 NSCLC, 9.86 µM. Also, the TGI in the experiment on HCT-116 colon is 16.2 µM; with SNB-75 CNS, 71.1 µM; in the experiment on UACC-62 melanoma, above 100 µM; with SW-620 colon, above 100 µM; in the experiment with U251 CNS, 31 µM; with BT-549 breast, 63.6 µM. Besides, the TGI was above 100 µM in the experiment on NCI-H226 lung, 28.9 µM with T-47D breast, above 100 µM with OVCAR-8 ovarian and above 100 µM in the experiment with A549 NSCLC.

For `CC(C)c1ccc(Nc2nccc(-c3cnn4ncccc34)n2)cc1`, the GI50 was 0.324 µM in the experiment on HCT-116 colon; 0.484 µM with SNB-75 CNS; 0.326 µM in the experiment on UACC-62 melanoma; 0.516 µM in the experiment with SW-620 colon; 0.559 µM in the experiment on U251 CNS; 0.967 µM in the experiment with BT-549 breast. Moreover, the GI50 in the experiment on NCI-H226 lung was 0.227 µM; with T-47D breast, 0.469 µM; in the experiment with OVCAR-8 ovarian it was 0.555 µM; in the experiment on A549 NSCLC it was 0.6 µM. Further, the TGI with HCT-116 colon was 4.29 µM; in the experiment with SNB-75 CNS, 1.17 µM; in the experiment on UACC-62 melanoma it was 1.13 µM; in the experiment on SW-620 colon, 9.07 µM; in the experiment with U251 CNS, above 9.71 µM; in the experiment on BT-549 breast, above 25 µM. In addition, the TGI with NCI-H226 lung is 2.45 µM; in the experiment with T-47D breast it was above 6.22 µM; in the experiment with OVCAR-8 ovarian, 3.74 µM; in the experiment on A549 NSCLC, 3.65 µM.
